PubChem BioAssay AID1963844 (Molecular Pharmacology Branch, DTP, NCI, 2024)

Test system: 422866-222-R5-J1-PDC complex spheroid viability
Assay: Anticancer human tumor 422866-222-R5-J1-PDC patient-derived pancreatic adenocarcinoma cell line growth inhibition [POLQ]
Details: for IC50: curve of first compound; for viability, T/C: stronger effect = lower value
Procedure: Multicellular complex tumor spheroid response to Polymerase (POL) inhibitors (novobiocin, ART-558, RP6685) in combination with a variety of drugs and investigational agents in selected tumor cell lines
The POL inhibitors (novobiocin, ART-558, and RP6685) were evaluated both individually and in combination with standard of care and investigational anticancer small molecules within a complex spheroid model of solid tumors. . Complex spheroids include a stromal component modeled by human endothelial cells (HUVEC) and fibroblasts modeled by human mesenchymal stem cells (MSCs). The concentration ranges selected for each drug and investigational agent were based upon clinically achievable concentrations if the clinical Cmax of the agent was known.
Compounds. The drugs and investigational agents: novobiocin (NSC847541), ART-558 (NSC835418), RP-6685 (NSC848927), peposertib (NSC802822), ceralasertib (NSC780249), elimusertib (NSC800525), camonsertib (NSC841442), AZD-1390 (NSC803789), olaparib (NSC753686), talazoparib (NSC767125), rucaparib (NSC756644), sotorasib (NSC818433), MRTX-1133 (NSC836407), SN-38 (NSC673596), topotecan (NSC609699), epotoside (NSC141540), doxorubicin (NSC123127), gemcitabine (NSC613327), 5-fluorouracil (NSC19893), paclitaxel (NSC125973), vemurafenib (NSC761431), MSA-2 (NSC828583), SN-011 (NSC837082), adavosertib (NSC754352), prexasertib (NSC758257), carboplatin (NSC241240) and oxaliplatin (NSC266046), were obtained from the National Cancer Institute (NCI) Developmental Therapeutics Program Chemical Repository (21). The FDA-approved anticancer drug set is available from the Developmental Therapeutics Program at https://dtp.cancer.gov/organization/dscb/obtaining/. […] The stock solutions were prepared in dimethyl sulfoxide (DMSO, Sigma-Aldrich, St. Louis, MO, cat. D2650), except for the platinum compounds which were prepared in saline (Quality Biological, Gaithersburg, MD, cat. 114-055-101), at 800-fold the tested concentration and stored at -70 degrees C prior to their use. All drugs and investigational agents were tested over a range starting from a high concentration at or near the clinical Cmax and decreasing in half-log increments. If the clinical Cmax for an agent had not been determined, the highest concentration tested was 10 microM, except for SN-38, which was tested at a high concentration of 1 microM.
Cell Culture. All cells were maintained in an incubator at 37 degrees C and 5% CO2 with 95% humidity. The PDC lines were cultured according to standard operating procedures established by the NCI PDMR (https://pdmr.cancer.gov). Table 3 of the manuscript, lists the cell lines along with the number of the three cell types plated to form the mct-spheroids and media for tumor cell growth. After thawing, all PDC lines, except 997537-175-T-J1-PDC and 415267-285-R-J2-PDC, were cultured in Matrigel-coated flasks prepared with a working solution of 1X Ham's F-12 nutrient mix, without supplementation (Thermo Fisher Scientific, cat. 11765054), 100 U/mL penicillin-streptomycin (Thermo Fisher Scientific, cat. 15140122), and 2.5% Matrigel (Corning Inc., Corning, NY, cat. 354248) for the first three passages. The two PDC lines 997537-175-T-J1-PDC and 415267-285-R-J2-PDC were cultured on uncoated flasks. The 857933-349-R-J2-PDC line was cultured in 6C/Colon 1B media containing advanced DMEM/F-12 (Thermo Fisher Scientific, cat. 12634028), 10 mM HEPES (Thermo Fisher Scientific, cat. 15630080), 1X GlutaMAX supplement (Thermo Fisher Scientific, cat. 35050061), 0.1 mg/mL primocin (InvivoGen, San Diego, CA, cat. ant-pm-2), 10% defined fetal bovine serum, heat inactivated (HyClone Laboratories Inc., Logan, UT, cat. SH30070.03HI), 50% L-WRN conditioned media (ATCC, cat. CRL-3276), 1.25 mM N-Acetyl-L-cysteine (Sigma-Aldrich, cat. A9165), 10 mM nicotinamide (Sigma-Aldrich, cat. N0636), 1X B-27 supplement (Thermo Fisher Scientific, cat. 17504044), 1X N-2 supplement (Thermo Fisher Scientific, cat. […]

[1] = second compound 0.0316 µM, first compound 0.0316 µM
[2] = second compound 0.0316 µM, first compound 0.1 µM
[3] = second compound 0.0316 µM, first compound 0.316 µM
[4] = second compound 0.0316 µM, first compound 1 µM
[5] = second compound 0.0316 µM, first compound 3.16 µM
[6] = second compound 0.0316 µM, first compound 10 µM
[7] = second compound 0.1 µM, first compound 0.0316 µM
[8] = second compound 0.1 µM, first compound 0.1 µM
[9] = second compound 0.1 µM, first compound 0.316 µM
[10] = second compound 0.1 µM, first compound 1 µM
[11] = second compound 0.1 µM, first compound 3.16 µM
[12] = second compound 0.1 µM, first compound 10 µM
[13] = second compound 0.316 µM, first compound 0.0316 µM
[14] = second compound 0.316 µM, first compound 0.1 µM
[15] = second compound 0.316 µM, first compound 0.316 µM
[16] = second compound 0.316 µM, first compound 1 µM
[17] = second compound 0.316 µM, first compound 3.16 µM
[18] = second compound 0.316 µM, first compound 10 µM
[19] = second compound 1 µM, first compound 0.0316 µM
[20] = second compound 1 µM, first compound 0.1 µM
[21] = second compound 1 µM, first compound 0.316 µM
[22] = second compound 1 µM, first compound 1 µM
[23] = second compound 1 µM, first compound 3.16 µM
[24] = second compound 1 µM, first compound 10 µM
[25] = second compound 3.16 µM, first compound 0.0316 µM
[26] = second compound 3.16 µM, first compound 0.1 µM
[27] = second compound 3.16 µM, first compound 0.316 µM
[28] = second compound 3.16 µM, first compound 1 µM
[29] = second compound 3.16 µM, first compound 3.16 µM
[30] = second compound 3.16 µM, first compound 10 µM
[31] = second compound 10 µM, first compound 0.0316 µM
[32] = second compound 10 µM, first compound 0.1 µM
[33] = second compound 10 µM, first compound 0.316 µM
[34] = second compound 10 µM, first compound 1 µM
[35] = second compound 10 µM, first compound 3.16 µM
[36] = second compound 10 µM, first compound 10 µM
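Note: spheroids exposed to compounds for one week before readout.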
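Throughout, for viability, T/C: percent of DMSO vehicle wells luminescence so 100% = untreated viability.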

## CC(=O)O[C@H]1C(=O)[C@@]2(C)[C@H]([C@H](OC(=O)c3ccccc3)[C@]3(O)C[C@H](OC(=O)[C@H](O)[C@@H](NC(=O)c4ccccc4)c4ccccc4)C(C)=C1C3(C)C)[C@]1(OC(C)=O)CO[C@@H]1C[C@@H]2O + COC1C(OC(N)=O)C(O)C(Oc2ccc3c(O)c(NC(=O)c4ccc(O)c(CC=C(C)C)c4)c(=O)oc3c2C)OC1(C)C
Second compound 0.0316 µM
  IC50: > 3000 nM
Second compound 0.1 µM
  IC50: > 3000 nM
Second compound 0.316 µM
  IC50: > 3000 nM
Second compound 1 µM
  IC50: > 3000 nM
Second compound 3.16 µM
  IC50: > 3000 nM
Second compound 10 µM
  IC50: > 3000 nM
Second compound 0.0316 µM, first compound 0.00949 µM
  viability, T/C: 64.8%
Second compound 0.0316 µM, first compound 0.03 µM
  viability, T/C: 57.2%
Second compound 0.0316 µM, first compound 0.0949 µM
  viability, T/C: 61.5%
Second compound 0.0316 µM, first compound 0.3 µM
  viability, T/C: 59.5%
Second compound 0.0316 µM, first compound 0.949 µM
  viability, T/C: 64.7%
Second compound 0.0316 µM, first compound 3 µM
  viability, T/C: 80.4%
Second compound 0.1 µM, first compound 0.00949 µM
  viability, T/C: 71.6%
Second compound 0.1 µM, first compound 0.03 µM
  viability, T/C: 67.4%
Second compound 0.1 µM, first compound 0.0949 µM
  viability, T/C: 66%
Second compound 0.1 µM, first compound 0.3 µM
  viability, T/C: 67%
Second compound 0.1 µM, first compound 0.949 µM
  viability, T/C: 69.1%
Second compound 0.1 µM, first compound 3 µM
  viability, T/C: 78.8%
Second compound 0.316 µM, first compound 0.00949 µM
  viability, T/C: 67%
Second compound 0.316 µM, first compound 0.03 µM
  viability, T/C: 63.5%
Second compound 0.316 µM, first compound 0.0949 µM
  viability, T/C: 54.6%
Second compound 0.316 µM, first compound 0.3 µM
  viability, T/C: 65.1%
Second compound 0.316 µM, first compound 0.949 µM
  viability, T/C: 70.7%
Second compound 0.316 µM, first compound 3 µM
  viability, T/C: 84.5%
Second compound 1 µM, first compound 0.00949 µM
  viability, T/C: 62.1%
Second compound 1 µM, first compound 0.03 µM
  viability, T/C: 54.9%
Second compound 1 µM, first compound 0.0949 µM
  viability, T/C: 61.4%
Second compound 1 µM, first compound 0.3 µM
  viability, T/C: 56.3%
Second compound 1 µM, first compound 0.949 µM
  viability, T/C: 59.6%
Second compound 1 µM, first compound 3 µM
  viability, T/C: 81.1%
Second compound 3.16 µM, first compound 0.00949 µM
  viability, T/C: 66.8%
Second compound 3.16 µM, first compound 0.03 µM
  viability, T/C: 52.9%
Second compound 3.16 µM, first compound 0.0949 µM
  viability, T/C: 55.3%
Second compound 3.16 µM, first compound 0.3 µM
  viability, T/C: 54%
Second compound 3.16 µM, first compound 0.949 µM
  viability, T/C: 75%
Second compound 3.16 µM, first compound 3 µM
  viability, T/C: 86.7%
Second compound 10 µM, first compound 0.00949 µM
  viability, T/C: 63.7%
Second compound 10 µM, first compound 0.03 µM
  viability, T/C: 60.6%
Second compound 10 µM, first compound 0.0949 µM
  viability, T/C: 60.3%
Second compound 10 µM, first compound 0.3 µM
  viability, T/C: 61.5%
Second compound 10 µM, first compound 0.949 µM
  viability, T/C: 72%
Second compound 10 µM, first compound 3 µM
  viability, T/C: 91.9%

## COc1cccc2c1C(=O)c1c(O)c3c(c(O)c1C2=O)CC(O)(C(=O)CO)CC3OC1CC(N)C(O)C(C)O1 (stereo unspecified) + COC1C(OC(N)=O)C(O)C(Oc2ccc3c(O)c(NC(=O)c4ccc(O)c(CC=C(C)C)c4)c(=O)oc3c2C)OC1(C)C
Second compound 0.0316 µM
  IC50: 242 nM
Second compound 0.1 µM
  IC50: 225 nM
Second compound 0.316 µM
  IC50: 236 nM
Second compound 1 µM
  IC50: 250 nM
Second compound 3.16 µM
  IC50: 217 nM
Second compound 10 µM
  IC50: 224 nM
[1]
  viability, T/C: 60.2%
[2]
  viability, T/C: 110%
[3]
  viability, T/C: 39.3%
[4]
  viability, T/C: 29.7%
[5]
  viability, T/C: 30%
[6]
  viability, T/C: 35.5%
[7]
  viability, T/C: 75.5%
[8]
  viability, T/C: 94.4%
[9]
  viability, T/C: 35.4%
[10]
  viability, T/C: 25.3%
[11]
  viability, T/C: 28.9%
[12]
  viability, T/C: 33.3%
[13]
  viability, T/C: 67.5%
[14]
  viability, T/C: 102%
[15]
  viability, T/C: 38.1%
[16]
  viability, T/C: 26.9%
[17]
  viability, T/C: 26.9%
[18]
  viability, T/C: 30.9%
[19]
  viability, T/C: 71.2%
[20]
  viability, T/C: 104%
[21]
  viability, T/C: 40.3%
[22]
  viability, T/C: 21.8%
[23]
  viability, T/C: 26.9%
[24]
  viability, T/C: 29.5%
[25]
  viability, T/C: 54.5%
[26]
  viability, T/C: 107%
[27]
  viability, T/C: 35%
[28]
  viability, T/C: 23.9%
[29]
  viability, T/C: 25.6%
[30]
  viability, T/C: 38.9%
[31]
  viability, T/C: 56.1%
[32]
  viability, T/C: 106%
[33]
  viability, T/C: 36.8%
[34]
  viability, T/C: 26.7%
[35]
  viability, T/C: 28.9%
[36]
  viability, T/C: 29.8%

## O=c1[nH]cc(F)c(=O)[nH]1 + COC1C(OC(N)=O)C(O)C(Oc2ccc3c(O)c(NC(=O)c4ccc(O)c(CC=C(C)C)c4)c(=O)oc3c2C)OC1(C)C
Second compound 0.0316 µM
  IC50: > 10000 nM
Second compound 0.1 µM
  IC50: > 10000 nM
Second compound 0.316 µM
  IC50: > 10000 nM
Second compound 1 µM
  IC50: > 10000 nM
Second compound 3.16 µM
  IC50: > 10000 nM
Second compound 10 µM
  IC50: > 10000 nM
[1]
  viability, T/C: 103%
[2]
  viability, T/C: 99.7%
[3]
  viability, T/C: 102%
[4]
  viability, T/C: 98.9%
[5]
  viability, T/C: 82.7%
[6]
  viability, T/C: 78.5%
[7]
  viability, T/C: 109%
[8]
  viability, T/C: 116%
[9]
  viability, T/C: 99.7%
[10]
  viability, T/C: 82.9%
[11]
  viability, T/C: 82.5%
[12]
  viability, T/C: 79%
[13]
  viability, T/C: 109%
[14]
  viability, T/C: 105%
[15]
  viability, T/C: 93.5%
[16]
  viability, T/C: 92.1%
[17]
  viability, T/C: 84.8%
[18]
  viability, T/C: 84%
[19]
  viability, T/C: 107%
[20]
  viability, T/C: 108%
[21]
  viability, T/C: 93.2%
[22]
  viability, T/C: 90.5%
[23]
  viability, T/C: 72.2%
[24]
  viability, T/C: 80.8%
[25]
  viability, T/C: 98%
[26]
  viability, T/C: 94.1%
[27]
  viability, T/C: 102%
[28]
  viability, T/C: 89.2%
[29]
  viability, T/C: 81.8%
[30]
  viability, T/C: 82.5%
[31]
  viability, T/C: 103%
[32]
  viability, T/C: 98%
[33]
  viability, T/C: 99.9%
[34]
  viability, T/C: 79.9%
[35]
  viability, T/C: 77.7%
[36]
  viability, T/C: 81.4%
